Experimental data as given in ChEMBL document CHEMBL3525924, “Cytochrome P450 3A-mediated microsomal biotransformation of 1α,25-dihydroxyvitamin D3 in mouse and human liver: drug-related induction and inhibition of catabolism” (Drug Metab Dispos, 2012).

Test system: not listed separately
Assay: Drug metabolism in CD1 mouse liver microsomes assessed as metabolite formation at 20 uM after 30 mins by LC/MS analysis in presence of NADPH and CYP2B inhibitor orphenadrine
Assay type: ADME
Settings: 0.5 h

Row | Drug metabolism | Compound
1 | metabolite_detected | C=C1/C(=C\C=C2/CCC[C@]3(C)[C@@H]([C@H](C)C[C@@H](O)CC(C)(C)O)CC[C@@H]23)C[C@@H](O)C[C@@H]1O

Test system: not listed separately
Assay: Drug metabolism in CD1 mouse liver microsomes assessed as metabolite formation at 20 uM after 30 mins by LC/MS analysis in presence of NADPH and CYP1A1 inhibitor alpha-naphthoflavone
Assay type: ADME
Settings: 0.5 h

Row | Drug metabolism | Compound
2 | metabolite_detected | C=C1/C(=C\C=C2/CCC[C@]3(C)[C@@H]([C@H](C)C[C@@H](O)CC(C)(C)O)CC[C@@H]23)C[C@@H](O)C[C@@H]1O

Test system: not listed separately
Assay: Drug metabolism in CD1 mouse liver microsomes assessed as metabolite formation at 20 uM after 30 mins by LC/MS analysis in presence of NADPH and CYP2D inhibitor quinine
Assay type: ADME
Settings: 0.5 h

Row | Drug metabolism | Compound
3 | metabolite_detected | C=C1/C(=C\C=C2/CCC[C@]3(C)[C@@H]([C@H](C)C[C@@H](O)CC(C)(C)O)CC[C@@H]23)C[C@@H](O)C[C@@H]1O

Test system: not listed separately
Assay: Drug metabolism in dexamethasone treated CD1 mouse liver microsomes assessed as metabolite formation at 20 uM after 30 mins by LC/MS analysis in presence of NADPH and CYP2C inhibitor sulfaphenazole
Assay type: ADME
Settings: 0.5 h

Row | Drug metabolism | Compound
4 | metabolite_detected | C=C1/C(=C\C=C2/CCC[C@]3(C)[C@@H]([C@H](C)C[C@@H](O)CC(C)(C)O)CC[C@@H]23)C[C@@H](O)C[C@@H]1O

Test system: not listed separately
Assay: Drug level in dexamethasone treated CD1 mouse liver microsomes treated with 20 uM of 1alpha,25(OH)2D3 after 30 mins by LC/MS analysis in presence of NADPH relative to vehicle treated mouse
Assay type: ADME
Settings: 0.5 h

Row | Drug metabolism | Compound
5 | metabolite_detected | C=C1/C(=C\C=C2/CCC[C@]3(C)[C@@H]([C@H](C)C[C@@H](O)CC(C)(C)O)CC[C@@H]23)C[C@@H](O)C[C@@H]1O

Test system: Liver microsome
Assay: Drug metabolism in human liver microsomes assessed as IC50 for ritonavir-mediated inhibition of metabolite formation at 20 uM after 30 mins by LC/MS analysis
Assay type: ADME
Settings: 0.5 h

Row | IC50 | Compound
6 | 16 nM | C=C1/C(=C\C=C2/CCC[C@]3(C)[C@@H]([C@H](C)C[C@@H](O)CC(C)(C)O)CC[C@@H]23)C[C@@H](O)C[C@@H]1O

Test system: not listed separately
Assay: Drug metabolism in prednisone treated CD1 mouse liver microsomes assessed as metabolite formation at 20 uM after 30 mins by LC/MS analysis in presence of NADPH and CYP2A inhibitor 8-methoxypsoralen
Assay type: ADME
Settings: 0.5 h

Row | Drug metabolism | Compound
7 | metabolite_detected | C=C1/C(=C\C=C2/CCC[C@]3(C)[C@@H]([C@H](C)C[C@@H](O)CC(C)(C)O)CC[C@@H]23)C[C@@H](O)C[C@@H]1O

Test system: not listed separately
Assay: Drug metabolism in prednisone treated CD1 mouse liver microsomes assessed as metabolite formation at 20 uM after 30 mins by LC/MS analysis in presence of NADPH and CYP1A1 inhibitor alpha-naphthoflavone
Assay type: ADME
Settings: 0.5 h

Row | Drug metabolism | Compound
8 | metabolite_detected | C=C1/C(=C\C=C2/CCC[C@]3(C)[C@@H]([C@H](C)C[C@@H](O)CC(C)(C)O)CC[C@@H]23)C[C@@H](O)C[C@@H]1O

Test system: Liver microsome
Assay: Drug metabolism in human liver microsomes assessed as IC50 for ketoconazole-mediated inhibition of metabolite formation at 20 uM after 30 mins by LC/MS analysis
Assay type: ADME
Settings: 0.5 h

Row | IC50 | Compound
9 | 32 nM | C=C1/C(=C\C=C2/CCC[C@]3(C)[C@@H]([C@H](C)C[C@@H](O)CC(C)(C)O)CC[C@@H]23)C[C@@H](O)C[C@@H]1O

Test system: not listed separately
Assay: Drug metabolism in dexamethasone treated CD1 mouse liver microsomes assessed as metabolite formation at 20 uM after 30 mins by LC/MS analysis in presence of NADPH and CYP2B inhibitor orphenadrine
Assay type: ADME
Settings: 0.5 h

Row | Drug metabolism | Compound
10 | metabolite_detected | C=C1/C(=C\C=C2/CCC[C@]3(C)[C@@H]([C@H](C)C[C@@H](O)CC(C)(C)O)CC[C@@H]23)C[C@@H](O)C[C@@H]1O

Test system: not listed separately
Assay: Drug metabolism in prednisone treated CD1 mouse liver microsomes assessed as metabolite formation at 20 uM after 30 mins by LC/MS analysis in presence of NADPH and CYP1A2 inhibitor furafyline
Assay type: ADME
Settings: 0.5 h

Row | Drug metabolism | Compound
11 | metabolite_detected | C=C1/C(=C\C=C2/CCC[C@]3(C)[C@@H]([C@H](C)C[C@@H](O)CC(C)(C)O)CC[C@@H]23)C[C@@H](O)C[C@@H]1O

Test system: not listed separately
Assay: Drug metabolism in CD1 mouse liver microsomes assessed as metabolite formation at 20 uM after 30 mins by LC/MS analysis in presence of NADPH and CYP2A inhibitor 8-methoxypsoralen
Assay type: ADME
Settings: 0.5 h

Row | Drug metabolism | Compound
12 | metabolite_detected | C=C1/C(=C\C=C2/CCC[C@]3(C)[C@@H]([C@H](C)C[C@@H](O)CC(C)(C)O)CC[C@@H]23)C[C@@H](O)C[C@@H]1O

Test system: not listed separately
Assay: Drug metabolism in dexamethasone treated CD1 mouse liver microsomes assessed as metabolite formation at 20 uM after 30 mins by LC/MS analysis in presence of NADPH and CYP1A1 inhibitor alpha-naphthoflavone
Assay type: ADME
Settings: 0.5 h

Row | Drug metabolism | Compound
13 | metabolite_detected | C=C1/C(=C\C=C2/CCC[C@]3(C)[C@@H]([C@H](C)C[C@@H](O)CC(C)(C)O)CC[C@@H]23)C[C@@H](O)C[C@@H]1O

Test system: not listed separately
Assay: Drug metabolism in prednisone treated CD1 mouse liver microsomes assessed as metabolite formation at 20 uM after 30 mins by LC/MS analysis in presence of NADPH and CYP2D inhibitor quinine
Assay type: ADME
Settings: 0.5 h

Row | Drug metabolism | Compound
14 | metabolite_detected | C=C1/C(=C\C=C2/CCC[C@]3(C)[C@@H]([C@H](C)C[C@@H](O)CC(C)(C)O)CC[C@@H]23)C[C@@H](O)C[C@@H]1O

Test system: not listed separately
Assay: Drug metabolism in dexamethasone treated CD1 mouse liver microsomes assessed as metabolite formation at 20 uM after 30 mins by LC/MS analysis in presence of NADPH and CYP2A inhibitor 8-methoxypsoralen
Assay type: ADME
Settings: 0.5 h

Row | Drug metabolism | Compound
15 | metabolite_detected | C=C1/C(=C\C=C2/CCC[C@]3(C)[C@@H]([C@H](C)C[C@@H](O)CC(C)(C)O)CC[C@@H]23)C[C@@H](O)C[C@@H]1O
